Results: ChEMBL document CHEMBL4138123, “Design, synthesis and biological evaluation of novel pyrazolochalcones as potential modulators of PI3K/Akt/mTOR pathway and inducers of apoptosis in breast cancer cells” (Eur J Med Chem, 2017)

What was measured:
Assay type in all cases: functional
SN12C [1] = test: Cytotoxicity against human SN12C cells assessed as growth inhibition after 48 hrs by sulforhodamine B assay
HT-29 [2] = test: Cytotoxicity against human HT-29 cells assessed as cell growth at 0.1 uM after 48 hrs by sulforhodamine B assay relative to control; settings: HT-29, 48 h, read-out: Activity
SK-OV-3 = test: Cytotoxicity against human SKOV3 cells assessed as cell growth at 1 uM after 48 hrs by sulforhodamine B assay relative to control; settings: SK-OV-3, 48 h, read-out: Activity
SNB-19 = test: Cytotoxicity against human SNB19 cells assessed as cell growth at 100 uM after 48 hrs by sulforhodamine B assay relative to control; settings: SNB-19, 48 h, read-out: Activity
T47D [3] = test: Cytotoxicity against human T47D cells assessed as cell growth at 1 uM after 48 hrs by sulforhodamine B assay relative to control; settings: read-out: Activity
HCT-15 = test: Cytotoxicity against human HCT15 cells assessed as cell growth at 100 uM after 48 hrs by sulforhodamine B assay relative to control; settings: HCT-15, 48 h, read-out: Activity
SR = test: Cytotoxicity against human SR cells assessed as cell growth at 0.1 uM after 48 hrs by sulforhodamine B assay relative to control; settings: read-out: Activity
SW-620 = test: Cytotoxicity against human SW620 cells assessed as cell growth at 0.01 uM after 48 hrs by sulforhodamine B assay relative to control; settings: SW-620, 48 h, read-out: Activity
NCI-H322M = test: Cytotoxicity against human NCI-H322M cells assessed as cell growth at 10 uM after 48 hrs by sulforhodamine B assay relative to control; settings: read-out: Activity
T47D [4] = test: Cytotoxicity against human T47D cells assessed as growth inhibition after 48 hrs by sulforhodamine B assay
HT-29 [5] = test: Cytotoxicity against human HT-29 cells assessed as cell growth at 10 uM after 48 hrs by sulforhodamine B assay relative to control; settings: HT-29, 48 h, read-out: Activity
M14 [6] = test: Cytotoxicity against human M14 cells assessed as cell growth at 100 uM after 48 hrs by sulforhodamine B assay relative to control; settings: M14, 48 h, read-out: Activity
OVCAR-5 [7] = test: Cytotoxicity against human OVCAR5 cells assessed as cell growth at 10 uM after 48 hrs by sulforhodamine B assay relative to control; settings: OVCAR-5, 48 h, read-out: Activity
BT-549 = test: Cytotoxicity against human BT549 cells assessed as growth inhibition after 48 hrs by sulforhodamine B assay; settings: BT-549, 48 h
HCT-116 = test: Cytotoxicity against human HCT116 cells assessed as cell growth at 100 uM after 48 hrs by sulforhodamine B assay relative to control; settings: HCT-116, 48 h, read-out: Activity
786-0 [8] = test: Cytotoxicity against human 786-0 cells assessed as cell growth at 100 uM after 48 hrs by sulforhodamine B assay relative to control; settings: 786-0, 48 h, read-out: Activity
786-0 [9] = test: Cytotoxicity against human 786-0 cells assessed as cell growth at 0.01 uM after 48 hrs by sulforhodamine B assay relative to control; settings: 786-0, 48 h, read-out: Activity
M14 [10] = test: Cytotoxicity against human M14 cells assessed as cell growth at 0.01 uM after 48 hrs by sulforhodamine B assay relative to control; settings: M14, 48 h, read-out: Activity
OVCAR-3 = test: Cytotoxicity against human OVCAR3 cells assessed as growth inhibition after 48 hrs by sulforhodamine B assay; settings: OVCAR-3, 48 h
NCI-H226 = test: Cytotoxicity against human NCI-H226 cells assessed as growth inhibition after 48 hrs by sulforhodamine B assay; settings: NCI-H226, 48 h
SN12C [11] = test: Cytotoxicity against human SN12C cells assessed as cell growth at 0.01 uM after 48 hrs by sulforhodamine B assay relative to control; settings: read-out: Activity
HOP-62 = test: Cytotoxicity against human HOP62 cells assessed as growth inhibition after 48 hrs by sulforhodamine B assay; settings: HOP-62, 48 h
M14 [12] = test: Cytotoxicity against human M14 cells assessed as cell growth at 10 uM after 48 hrs by sulforhodamine B assay relative to control; settings: M14, 48 h, read-out: Activity
SF-539 [13] = test: Cytotoxicity against human SF539 cells assessed as cell growth at 1 uM after 48 hrs by sulforhodamine B assay relative to control; settings: SF-539, 48 h, read-out: Activity
RXF 393 [14] = test: Cytotoxicity against human RXF393 cells assessed as cell growth at 0.01 uM after 48 hrs by sulforhodamine B assay relative to control; settings: RXF 393, 48 h, read-out: Activity
A498 = test: Cytotoxicity against human A498 cells assessed as cell growth at 0.01 uM after 48 hrs by sulforhodamine B assay relative to control; settings: A498, 48 h, read-out: Activity
MDA-MB-231 = test: Cytotoxicity against human MDA-MB-231 cells assessed as cell growth at 100 uM after 48 hrs by sulforhodamine B assay relative to control; settings: MDA-MB-231, 48 h, read-out: Activity
DU-145 = test: Cytotoxicity against human DU145 cells assessed as cell growth at 100 uM after 48 hrs by sulforhodamine B assay relative to control; settings: DU-145, 48 h, read-out: Activity
SF-539 [15] = test: Cytotoxicity against human SF539 cells assessed as cell growth at 0.01 uM after 48 hrs by sulforhodamine B assay relative to control; settings: SF-539, 48 h, read-out: Activity
UO-31 = test: Cytotoxicity against human UO31 cells assessed as cell growth at 0.01 uM after 48 hrs by sulforhodamine B assay relative to control; settings: UO-31, 48 h, read-out: Activity
T47D [16] = test: Cytotoxicity against human T47D cells assessed as cell growth at 10 uM after 48 hrs by sulforhodamine B assay relative to control; settings: read-out: Activity
KM12 = test: Cytotoxicity against human KM12 cells assessed as growth inhibition after 48 hrs by sulforhodamine B assay; settings: KM12, 48 h
RXF 393 [17] = test: Cytotoxicity against human RXF393 cells assessed as cell growth at 100 uM after 48 hrs by sulforhodamine B assay relative to control; settings: RXF 393, 48 h, read-out: Activity
OVCAR-5 [18] = test: Cytotoxicity against human OVCAR5 cells assessed as cell growth at 0.1 uM after 48 hrs by sulforhodamine B assay relative to control; settings: OVCAR-5, 48 h, read-out: Activity
IGROV-1 = test: Cytotoxicity against human IGROV1 cells assessed as cell growth at 10 uM after 48 hrs by sulforhodamine B assay relative to control; settings: IGROV-1, 48 h, read-out: Activity
SK-MEL-5 = test: Cytotoxicity against human SK-MEL-5 cells assessed as cell growth at 10 uM after 48 hrs by sulforhodamine B assay relative to control; settings: SK-MEL-5, 48 h, read-out: Activity
M14 [19] = test: Cytotoxicity against human M14 cells assessed as cell growth at 1 uM after 48 hrs by sulforhodamine B assay relative to control; settings: M14, 48 h, read-out: Activity

COc1ccc(-c2cc(/C=C/C(=O)c3ccc(OC)c(OC)c3)[nH]n2)cc1
GI50 (SN12C [1]): 1640 nM | LC50 (SN12C [1]): 8.73 µM | TGI (SN12C [1]): 3.78 µM | growth at 0.1 µM (HT-29 [2]): 101% | growth at 1 µM (SK-OV-3): 112% | growth at 100 µM (SNB-19): -96% | growth at 1 µM (T47D [3]): 70% | growth at 100 µM (HCT-15): -92% | growth at 0.1 µM (SR): 106% | growth at 0.01 µM (SW-620): 99% | growth at 10 µM (NCI-H322M): -32% | GI50 (T47D [4]): 1600 nM | LC50 (T47D [4]): 24.9 µM | TGI (T47D [4]): 5.15 µM | growth at 10 µM (HT-29 [5]): -66% | growth at 100 µM (M14 [6]): -99% | growth at 10 µM (OVCAR-5 [7]): -49% | GI50 (BT-549): 1680 nM | LC50 (concentration killing 50% of cells) (BT-549): 7.4 µM | TGI (BT-549): 3.53 µM | growth at 100 µM (HCT-116): -100% | growth at 100 µM (786-0 [8]): -96% | growth at 0.01 µM (786-0 [9]): 100% | growth at 0.01 µM (M14 [10]): 101% | GI50 (OVCAR-3): 1190 nM | LC50 (OVCAR-3): 5.15 µM | TGI (OVCAR-3): 2470 nM | GI50 (NCI-H226): 1540 nM | TGI (NCI-H226): 3.51 µM | growth at 0.01 µM (SN12C [11]): 95% | GI50 (HOP-62): 2350 nM | LC50 (HOP-62): 35.3 µM | TGI (HOP-62): 6.17 µM | growth at 10 µM (M14 [12]): -42% | growth at 1 µM (SF-539 [13]): 66% | growth at 0.01 µM (RXF 393 [14]): 82% | growth at 0.01 µM (A498): 91% | growth at 100 µM (MDA-MB-231): -86% | growth at 100 µM (DU-145): -80% | growth at 0.01 µM (SF-539 [15]): 95% | growth at 0.01 µM (UO-31): 86% | growth at 10 µM (T47D [16]): -28% | GI50 (KM12): 1380 nM | LC50 (KM12): 7.01 µM | TGI (KM12): 3110 nM | growth at 100 µM (RXF 393 [17]): -92% | growth at 0.1 µM (OVCAR-5 [18]): 89% | growth at 10 µM (IGROV-1): -60% | growth at 10 µM (SK-MEL-5): -66% | growth at 1 µM (M14 [19]): 97%

COc1ccc(C(=O)/C=C/c2cc(-c3cc(OC)c(OC)c(OC)c3)n[nH]2)cc1OC
LC50 (SN12C [1]): 6.37 µM | TGI (SN12C [1]): 3.13 µM | growth at 0.1 µM (HT-29 [2]): 105% | growth at 1 µM (SK-OV-3): 100% | growth at 100 µM (SNB-19): -95% | growth at 1 µM (T47D [3]): 75% | growth at 100 µM (HCT-15): -60% | growth at 0.1 µM (SR): 81% | growth at 0.01 µM (SW-620): 101% | growth at 10 µM (NCI-H322M): -96% | LC50 (T47D [4]): > 100 µM | TGI (T47D [4]): 4.36 µM | growth at 10 µM (HT-29 [5]): -94% | growth at 100 µM (M14 [6]): -68% | growth at 10 µM (OVCAR-5 [7]): -93% | LC50 (concentration killing 50% of cells) (BT-549): 5.87 µM | TGI (BT-549): 2.9 µM | growth at 100 µM (HCT-116): -13% | growth at 100 µM (786-0 [8]): -84% | growth at 0.01 µM (786-0 [9]): 96% | growth at 0.01 µM (M14 [10]): 97% | LC50 (OVCAR-3): 5.97 µM | TGI (OVCAR-3): 3170 nM | TGI (NCI-H226): 3.32 µM | growth at 0.01 µM (SN12C [11]): 99% | LC50 (HOP-62): 5.35 µM | TGI (HOP-62): 2.77 µM | growth at 10 µM (M14 [12]): -72% | growth at 1 µM (SF-539 [13]): 67% | growth at 0.01 µM (RXF 393 [14]): 100% | growth at 0.01 µM (A498): 97% | growth at 100 µM (MDA-MB-231): -84% | growth at 100 µM (DU-145): -89% | growth at 0.01 µM (SF-539 [15]): 97% | growth at 0.01 µM (UO-31): 86% | growth at 10 µM (T47D [16]): -42% | LC50 (KM12): 5.43 µM | TGI (KM12): 2410 nM | growth at 100 µM (RXF 393 [17]): -98% | growth at 0.1 µM (OVCAR-5 [18]): 88% | growth at 10 µM (IGROV-1): -84% | growth at 10 µM (SK-MEL-5): -98% | growth at 1 µM (M14 [19]): 94%
